US10358434B2, “2-(3-pyridinyl)-1H-benzimidazole derivative compound and medicament containing same” (NIHON MEDI-PHYSICS CO., LTD., priority 2014, dated 2019)

Assays:
[1] = In vivo kinetics experiment (radioactivity distribution); parameters: species or system Wistar male rat; conditions: rat i.v., mean ± SD
In short: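 Tissue radioactivity (% ID/g) and adrenal-to-blood, liver, kidney, small intestine, muscle and fat ratios determined at 10, 30 and 60 min post-dose. Tracers (approximately 1 to 3.7 MBq, saline with 1 w/v % ascorbic acid) injected i.v. into caudal vein of anesthetized 9-week male Wistar rats; organs excised, weighed, counted.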

[2] = tested on: human adrenal gland section expressing aldosterone-producing adenoma; experiment: In vitro autoradiography using human adrenal adenoma; type: binding; conditions: section of FIG. 17(b)
In short: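 Autoradiography readout: PSL in equal-sized ROIs over adenoma (B2) and normal adrenal cortex (B1), expressed as B2/B1 and decay-corrected using half-life, applied activity and plate contact time. Tissue was surgically excised human adrenal, frozen and cut at 7 μm, incubated 10 min with 5-33 kBq/mL tracer in BSA-containing PBS, then imaged after 16-20 h exposure.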

[3] = Plasma stability evaluation (TLC analysis); type: in vitro ADME; conditions: 37° C., 60 minutes, TLC analysis
In short: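 TLC analysis, using each compound's synthesis conditions, judged stability after methanol was added and samples were centrifuged to remove protein. Beforehand, each tracer had spent 60 minutes at 37° C in pooled heparinized normal human plasma.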

With `CCn1c(-c2cncc(Cn3ccnc3)c2)nc2ccc([123I])cc21` [[^123I] 608, 2-[5-{(1H-imidazol-1-yl)methyl}pyridin-3-yl]-1-ethyl-6-[^123I]iodo-1H-benzo[d]imidazole] the “Adrenal gland/blood ratio of radioactivity accumulation” value (“Adrenal gland/blood ratio” for short) ([1]; 10 min after administration) was 75.29 ± 24.87, the “Adrenal gland/fat ratio of radioactivity accumulation” value (from here on “Adrenal gland/fat ratio”) ([1]; 10 min after administration) was 90.02 ± 14.66 and the “Adrenal gland/kidney ratio of radioactivity accumulation” value (“Adrenal gland/kidney ratio” below) ([1]; 10 min after administration) was 4.95 ± 1.61. For the same compound, the “Adrenal gland/liver ratio of radioactivity accumulation” value (from here on “Adrenal gland/liver ratio”) ([1]; 10 min after administration) was 2.86 ± 0.42, the “Adrenal gland/muscle ratio of radioactivity accumulation” value (from here on “Adrenal gland/muscle ratio”) ([1]; 10 min after administration) was 57.35 ± 15.85 and the “Adrenal gland/small intestine ratio of radioactivity accumulation” value (shortened to “Adrenal gland/small intestine ratio”) ([1]; 10 min after administration) was 5.04 ± 0.35. The “Radioactivity distribution Adrenal gland” value ([1]; 10 min after administration) was 8.76 ± 2.34 % ID/g, the “Radioactivity distribution Bladder (including urine)” value (“Radioactivity distribution Bladder” for short) ([1]; 10 min after administration) was 0.82 ± 0.43 % ID/g and the “Radioactivity distribution Blood” value ([1]; 10 min after administration) was 0.12 ± 0.01 % ID/g. The “Radioactivity distribution Fat” value ([1]; 10 min after administration) was 0.10 ± 0.01 % ID/g, the “Radioactivity distribution Femur” value ([1]; 10 min after administration) was 0.82 ± 0.05 % ID/g and the “Radioactivity distribution Heart” value ([1]; 10 min after administration) was 0.74 ± 0.09 % ID/g. For the same compound, the “Radioactivity distribution Kidney” value ([1]; 10 min after administration) was 1.79 ± 0.11 % ID/g, the “Radioactivity distribution Large intestine” value ([1]; 10 min after administration) was 0.12 ± 0.01 % ID/g and the “Radioactivity distribution Liver” value ([1]; 10 min after administration) was 3.03 ± 0.36 % ID/g. The “Radioactivity distribution Lung” value ([1]; 10 min after administration) was 1.11 ± 0.11 % ID/g, the “Radioactivity distribution Muscle (lower limbs)” value ([1]; 10 min after administration) was 0.15 ± 0.00 % ID/g and the “Radioactivity distribution Remaining whole body” value ([1]; 10 min after administration) was 0.29 ± 0.05 % ID/g. The “Radioactivity distribution Small intestine” value ([1]; 10 min after administration) was 1.74 ± 0.42 % ID/g, the “Radioactivity distribution Spleen” value ([1]; 10 min after administration) was 3.79 ± 1.44 % ID/g and the “Radioactivity distribution Stomach” value ([1]; 10 min after administration) was 0.53 ± 0.16 % ID/g. The “Radioactivity distribution Testis” value ([1]; 10 min after administration) was 0.07 ± 0.01 % ID/g, the “Radioactivity distribution Whole brain” value ([1]; 10 min after administration) was 0.03 ± 0.01 % ID/g and the “Adrenal gland/blood ratio” value ([1]; 30 min after administration) was 172.72 ± 25.00. The “Adrenal gland/fat ratio” value ([1]; 30 min after administration) was 103.83 ± 16.66, the “Adrenal gland/kidney ratio” value ([1]; 30 min after administration) was 5.90 ± 0.47 and the “Adrenal gland/liver ratio” value ([1]; 30 min after administration) was 10.03 ± 1.46. For the same compound, the “Adrenal gland/muscle ratio” value ([1]; 30 min after administration) was 65.62 ± 16.66, the “Adrenal gland/small intestine ratio” value ([1]; 30 min after administration) was 3.39 ± 0.42 and the “Radioactivity distribution Adrenal gland” value ([1]; 30 min after administration) was 10.75 ± 1.11 % ID/g. For the same compound, the “Radioactivity distribution Bladder” value ([1]; 30 min after administration) was 2.70 ± 1.51 % ID/g, the “Radioactivity distribution Blood” value ([1]; 30 min after administration) was 0.06 ± 0.01 % ID/g and the “Radioactivity distribution Fat” value ([1]; 30 min after administration) was 0.10 ± 0.01 % ID/g. For the same compound, the “Radioactivity distribution Femur” value ([1]; 30 min after administration) was 1.17 ± 0.02 % ID/g, the “Radioactivity distribution Heart” value ([1]; 30 min after administration) was 0.76 ± 0.16 % ID/g and the “Radioactivity distribution Kidney” value ([1]; 30 min after administration) was 1.82 ± 0.08 % ID/g. The “Radioactivity distribution Large intestine” value ([1]; 30 min after administration) was 0.11 ± 0.00 % ID/g, the “Radioactivity distribution Liver” value ([1]; 30 min after administration) was 1.08 ± 0.13 % ID/g and the “Radioactivity distribution Lung” value ([1]; 30 min after administration) was 1.14 ± 0.08 % ID/g. For the same compound, the “Radioactivity distribution Muscle (lower limbs)” value ([1]; 30 min after administration) was 0.17 ± 0.03 % ID/g, the “Radioactivity distribution Remaining whole body” value ([1]; 30 min after administration) was 0.30 ± 0.00 % ID/g and the “Radioactivity distribution Small intestine” value ([1]; 30 min after administration) was 3.18 ± 0.18 % ID/g. The “Radioactivity distribution Spleen” value ([1]; 30 min after administration) was 4.81 ± 0.73 % ID/g, the “Radioactivity distribution Stomach” value ([1]; 30 min after administration) was 1.34 ± 0.66 % ID/g and the “Radioactivity distribution Testis” value ([1]; 30 min after administration) was 0.11 ± 0.00 % ID/g. The “Radioactivity distribution Whole brain” value ([1]; 30 min after administration) was 0.02 ± 0.00 % ID/g, the “Adrenal gland/blood ratio” value ([1]; 60 min after administration) was 345.58 ± 116.00 and the “Adrenal gland/fat ratio” value ([1]; 60 min after administration) was 158.96 ± 131.25. The “Adrenal gland/kidney ratio” value ([1]; 60 min after administration) was 10.46 ± 6.81, the “Adrenal gland/liver ratio” value ([1]; 60 min after administration) was 25.91 ± 10.25 and the “Adrenal gland/muscle ratio” value ([1]; 60 min after administration) was 113.23 ± 76.79. For the same compound, the “Adrenal gland/small intestine ratio” value ([1]; 60 min after administration) was 3.39 ± 1.14, the “Radioactivity distribution Adrenal gland” value ([1]; 60 min after administration) was 15.22 ± 7.58 % ID/g and the “Radioactivity distribution Bladder” value ([1]; 60 min after administration) was 2.67 ± 0.43 % ID/g. For the same compound, the “Radioactivity distribution Blood” value ([1]; 60 min after administration) was 0.04 ± 0.01 % ID/g, the “Radioactivity distribution Fat” value ([1]; 60 min after administration) was 0.11 ± 0.04 % ID/g and the “Radioactivity distribution Femur” value ([1]; 60 min after administration) was 1.28 ± 0.07 % ID/g. The “Radioactivity distribution Heart” value ([1]; 60 min after administration) was 0.72 ± 0.09 % ID/g, the “Radioactivity distribution Kidney” value ([1]; 60 min after administration) was 1.55 ± 0.21 % ID/g and the “Radioactivity distribution Large intestine” value ([1]; 60 min after administration) was 0.16 ± 0.07 % ID/g. The “Radioactivity distribution Liver” value ([1]; 60 min after administration) was 0.57 ± 0.06 % ID/g, the “Radioactivity distribution Lung” value ([1]; 60 min after administration) was 0.94 ± 0.08 % ID/g and the “Radioactivity distribution Muscle (lower limbs)” value ([1]; 60 min after administration) was 0.15 ± 0.03 % ID/g. For the same compound, the “Radioactivity distribution Remaining whole body” value ([1]; 60 min after administration) was 0.28 ± 0.01 % ID/g, the “Radioactivity distribution Small intestine” value ([1]; 60 min after administration) was 4.35 ± 0.69 % ID/g and the “Radioactivity distribution Spleen” value ([1]; 60 min after administration) was 4.13 ± 1.21 % ID/g. The “Radioactivity distribution Stomach” value ([1]; 60 min after administration) was 1.15 ± 0.26 % ID/g, the “Radioactivity distribution Testis” value ([1]; 60 min after administration) was 0.09 ± 0.01 % ID/g and the “Radioactivity distribution Whole brain” value ([1]; 60 min after administration) was 0.02 ± 0.00 % ID/g. For the same compound, the B2/B1 accumulation ratio [2] was 1.08, the “B2 (PSL value, aldosterone-producing adenoma)” value ([2]; site 71b) was 3580 and the “B1 (PSL value, normal adrenal cortex)” value ([2]; site 72b) was 3303. For the same compound, the “Radiochemical purity after incubation in human plasma” value [3] was 88%.
